The values below come from patent US20240239806A1, “COMPOUNDS, COMPOSITIONS AND METHODS OF TREATING DISORDERS” (Chengdu Anticancer Bioscience, Ltd., priority 2021, published 2024).

One may read the EC50 as the concentration that produces a half-maximal response. Lower therefore signals higher potency in that assay.

One test deals with RPEMYC^H2B-GFP cells. The test can be described thus: Phenotypic screening assay (mitotic arrest, polyploidy). The test is classed as cell-based. Conditions: 1 nM to 30 μM, read-out: Min. Effective conc. for Polyploidy (≥5%). In short, it runs like this:
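RPE cells expressing MYC and H2B-EGFP treated with compound at 1 nM–30 μM; mitotic index scored at 24 h and polyploidy (DNA content) at 48 h by automated imaging, with reads at 24, 48 or 72 h. Hits show transient mitotic arrest followed by polyploid accumulation.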
For `COc1cc(NC(C)=O)cc(Oc2ccnc3ccc(Br)cc23)c1` [Compound 22, N-(3-((6-bromoquinolin-4-yl)oxy)-5-methoxyphenyl)acetamide], the minimal effective concentration is 0.001 to 1 µM.

`COc1cc(Oc2ncnc3ccsc23)cc(-n2cccn2)c1` [Compound 38, 4-(3-methoxy-5-(1H-pyrazol-1-yl)phenoxy)thieno[3,2-d]pyrimidine]: the minimal effective concentration is 0.001 to 1 µM.

Staying with this test, now noted: 1 nM to 30 μM, read-out: Mitotic Arrest (≥5%).
In the case of `COc1cc(NC(C)=O)cc(Oc2ccnc3ccc(Br)cc23)c1` [Compound 22, N-(3-((6-bromoquinolin-4-yl)oxy)-5-methoxyphenyl)acetamide], the minimal effective concentration fell in the range of 0.001 to 1 µM.

As for `COc1cc(Oc2ncnc3ccsc23)cc(-n2cccn2)c1` [Compound 38, 4-(3-methoxy-5-(1H-pyrazol-1-yl)phenoxy)thieno[3,2-d]pyrimidine], the minimal effective concentration was 0.001 to 1 µM.

The same test, now with this note: 1 nM to 30 μM, read-out: Proliferative arrest (>50%).
For `COc1cc(NC(C)=O)cc(Oc2ccnc3ccc(Br)cc23)c1` [Compound 22, N-(3-((6-bromoquinolin-4-yl)oxy)-5-methoxyphenyl)acetamide], the IC50 lay within 1 to 1000 nM.

As for `COc1cc(Oc2ncnc3ccsc23)cc(-n2cccn2)c1` [Compound 38, 4-(3-methoxy-5-(1H-pyrazol-1-yl)phenoxy)thieno[3,2-d]pyrimidine], the IC50 is 1 to 1000 nM.

For a further test, the system named is A549. The experiment in a line: MECP in cancer cell line. The test is classed as cell-based. Particulars: Homo sapiens. In short, it runs like this:
(§1)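 Potency reported in bins: A 1 nM-1.0 μM, B to 10.0 μM, C to 30.0 μM, D above 30.0 μM. Compounds (1 nM-30 μM) applied to cells in DMEM/5% FBS; imaging-based readout at 24-72 h of mitotic index (raised at 24 h) and polyploidy (48 h), marking cytokinetic failure.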
The compound `COc1cc(NC(C)=O)cc(Oc2ccnc3ccc(Br)cc23)c1` [Compound 22, N-(3-((6-bromoquinolin-4-yl)oxy)-5-methoxyphenyl)acetamide] returned a minimal effective concentration of 0.001 to 1 µM.

`COc1cc(Oc2ncnc3ccsc23)cc(-n2cccn2)c1` [Compound 38, 4-(3-methoxy-5-(1H-pyrazol-1-yl)phenoxy)thieno[3,2-d]pyrimidine] returned a minimal effective concentration of 0.001 to 1 µM.

The test system of another test is HCT116. The experiment in a line: MECP in cancer cell line. Particulars: Homo sapiens, HCT-116. The test is classed as cell-based. In short, it runs like this: as §1
Compound `COc1cc(NC(C)=O)cc(Oc2ccnc3ccc(Br)cc23)c1` [Compound 22, N-(3-((6-bromoquinolin-4-yl)oxy)-5-methoxyphenyl)acetamide] displayed a minimal effective concentration of 0.001 to 1 µM.

With `COc1cc(Oc2ncnc3ccsc23)cc(-n2cccn2)c1` [Compound 38, 4-(3-methoxy-5-(1H-pyrazol-1-yl)phenoxy)thieno[3,2-d]pyrimidine], the minimal effective concentration lay in the range of 0.001 to 1 µM.

Another test relates to Hela. The test can be described thus: MECP in cancer cell line. The test is classed as cell-based. Particulars: Homo sapiens. Summed up:
as §1
In turn, `COc1cc(NC(C)=O)cc(Oc2ccnc3ccc(Br)cc23)c1` [Compound 22, N-(3-((6-bromoquinolin-4-yl)oxy)-5-methoxyphenyl)acetamide] registered a minimal effective concentration of 0.001 to 1 µM.

`COc1cc(Oc2ncnc3ccsc23)cc(-n2cccn2)c1` [Compound 38, 4-(3-methoxy-5-(1H-pyrazol-1-yl)phenoxy)thieno[3,2-d]pyrimidine] registered a minimal effective concentration of 0.001 to 1 µM.

The next test relates to MDA-MB-231. The experiment in a line: MECP in cancer cell line. Conditions: Homo sapiens. The test is classed as cell-based. In short, it runs like this: as §1
As to `COc1cc(NC(C)=O)cc(Oc2ccnc3ccc(Br)cc23)c1` [Compound 22, N-(3-((6-bromoquinolin-4-yl)oxy)-5-methoxyphenyl)acetamide], the minimal effective concentration lay in the range of 0.001 to 1 µM.

`COc1cc(Oc2ncnc3ccsc23)cc(-n2cccn2)c1` [Compound 38, 4-(3-methoxy-5-(1H-pyrazol-1-yl)phenoxy)thieno[3,2-d]pyrimidine] returned a minimal effective concentration of 0.001 to 1 µM.

The test system of a further test is SW480. The experiment in a line: MECP in cancer cell line. Conditions: Homo sapiens. The test is classed as cell-based. In short, it runs like this: as §1
Take `COc1cc(NC(C)=O)cc(Oc2ccnc3ccc(Br)cc23)c1` [Compound 22, N-(3-((6-bromoquinolin-4-yl)oxy)-5-methoxyphenyl)acetamide]: the minimal effective concentration was 0.001 to 1 µM.

`COc1cc(Oc2ncnc3ccsc23)cc(-n2cccn2)c1` [Compound 38, 4-(3-methoxy-5-(1H-pyrazol-1-yl)phenoxy)thieno[3,2-d]pyrimidine] gave a minimal effective concentration of 0.001 to 1 µM.

The next test has as its system T2 HCC. The test can be described thus: MECP in cancer cell line. The test is classed as cell-based. Particulars: Mus musculus. Summed up:
as §1
`COc1cc(NC(C)=O)cc(Oc2ccnc3ccc(Br)cc23)c1` [Compound 22, N-(3-((6-bromoquinolin-4-yl)oxy)-5-methoxyphenyl)acetamide] returned a minimal effective concentration of 0.001 to 1 µM.

With `COc1cc(Oc2ncnc3ccsc23)cc(-n2cccn2)c1` [Compound 38, 4-(3-methoxy-5-(1H-pyrazol-1-yl)phenoxy)thieno[3,2-d]pyrimidine], the minimal effective concentration was 0.001 to 1 µM.

In a further test the test system is NCI-H23. The test can be described thus: MECP in cancer cell line. The test is classed as cell-based. Conditions: Homo sapiens. In short, it runs like this:
as §1
`COc1cc(NC(C)=O)cc(Oc2ccnc3ccc(Br)cc23)c1` [Compound 22, N-(3-((6-bromoquinolin-4-yl)oxy)-5-methoxyphenyl)acetamide]: the minimal effective concentration fell in the range of 0.001 to 1 µM.

Take `COc1cc(Oc2ncnc3ccsc23)cc(-n2cccn2)c1` [Compound 38, 4-(3-methoxy-5-(1H-pyrazol-1-yl)phenoxy)thieno[3,2-d]pyrimidine]: the minimal effective concentration lay within 0.001 to 1 µM.

The next test concerns NCI-N87. The experiment in a line: MECP in cancer cell line. In kind it is cell-based. Conditions: Homo sapiens. Summed up:
as §1
In turn, `COc1cc(NC(C)=O)cc(Oc2ccnc3ccc(Br)cc23)c1` [Compound 22, N-(3-((6-bromoquinolin-4-yl)oxy)-5-methoxyphenyl)acetamide] displayed a minimal effective concentration of 0.001 to 1 µM.

The compound `COc1cc(Oc2ncnc3ccsc23)cc(-n2cccn2)c1` [Compound 38, 4-(3-methoxy-5-(1H-pyrazol-1-yl)phenoxy)thieno[3,2-d]pyrimidine] registered a minimal effective concentration of 0.001 to 1 µM.

The next test deals with A549. The experiment in a line: MTT assay of cellular proliferation. In kind it is cell-based. Particulars: Homo sapiens, 50% inhibition of cellular proliferation. In short, it runs like this: (§2)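 Proliferation is scored by MTT conversion, with formazan absorbance at 570 nm proportional to live cell number. Cultures in 5% FBS DMEM at 37 °C are treated across 1 nM-30 μM, and the half-inhibitory concentration is reported as EC50.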
A general note: Tetrazolium assays rely on reduction of a dye to a coloured formazan, in cell work by metabolically active cells.
Turning to `COc1cc(NC(C)=O)cc(Oc2ccnc3ccc(Br)cc23)c1` [Compound 22, N-(3-((6-bromoquinolin-4-yl)oxy)-5-methoxyphenyl)acetamide], the concentration for a half-maximal effect (EC50) lay within 1 to 1000 nM.

Consider `COc1cc(Oc2ncnc3ccsc23)cc(-n2cccn2)c1` [Compound 38, 4-(3-methoxy-5-(1H-pyrazol-1-yl)phenoxy)thieno[3,2-d]pyrimidine], for which the 50% effective concentration (EC50) lay within 1 to 1000 nM.

A further test deals with HCT116. The experiment in a line: MTT assay of cellular proliferation. In kind it is cell-based. Particulars: Homo sapiens, HCT-116, 50% inhibition of cellular proliferation. In short, it runs like this: as §2
`COc1cc(NC(C)=O)cc(Oc2ccnc3ccc(Br)cc23)c1` [Compound 22, N-(3-((6-bromoquinolin-4-yl)oxy)-5-methoxyphenyl)acetamide] showed an EC50 of 1 to 1000 nM.

Compound `COc1cc(Oc2ncnc3ccsc23)cc(-n2cccn2)c1` [Compound 38, 4-(3-methoxy-5-(1H-pyrazol-1-yl)phenoxy)thieno[3,2-d]pyrimidine] yielded a concentration for a half-maximal effect (EC50) of 1 to 1000 nM.

The next test relates to Hela. The experiment in a line: MTT assay of cellular proliferation. The test is classed as cell-based. Particulars: Homo sapiens, 50% inhibition of cellular proliferation. Summed up:
as §2
As for `COc1cc(NC(C)=O)cc(Oc2ccnc3ccc(Br)cc23)c1` [Compound 22, N-(3-((6-bromoquinolin-4-yl)oxy)-5-methoxyphenyl)acetamide], the EC50 is 1 to 1000 nM.

In turn, `COc1cc(Oc2ncnc3ccsc23)cc(-n2cccn2)c1` [Compound 38, 4-(3-methoxy-5-(1H-pyrazol-1-yl)phenoxy)thieno[3,2-d]pyrimidine] returned an EC50 of 1 to 1000 nM.

A further test relates to MDA-MB-231. The test can be described thus: MTT assay of cellular proliferation. In kind it is cell-based. Conditions: Homo sapiens; MDA-MB-231, MTT, 50% inhibition of cellular proliferation. Summed up: as §2
Compound `COc1cc(NC(C)=O)cc(Oc2ccnc3ccc(Br)cc23)c1` [Compound 22, N-(3-((6-bromoquinolin-4-yl)oxy)-5-methoxyphenyl)acetamide] registered an EC50 of 1 to 1000 nM.

As for `COc1cc(Oc2ncnc3ccsc23)cc(-n2cccn2)c1` [Compound 38, 4-(3-methoxy-5-(1H-pyrazol-1-yl)phenoxy)thieno[3,2-d]pyrimidine], the concentration for a half-maximal effect (EC50) was 1 to 1000 nM.

For a further test, the system named is NCI-H23. The test can be described thus: MTT assay of cellular proliferation. The test is classed as cell-based. Conditions: Homo sapiens, 50% inhibition of cellular proliferation. In short, it runs like this:
as §2
The compound `COc1cc(NC(C)=O)cc(Oc2ccnc3ccc(Br)cc23)c1` [Compound 22, N-(3-((6-bromoquinolin-4-yl)oxy)-5-methoxyphenyl)acetamide] displayed a half-maximal effective concentration (EC50) of 1 to 1000 nM.

The compound `COc1cc(Oc2ncnc3ccsc23)cc(-n2cccn2)c1` [Compound 38, 4-(3-methoxy-5-(1H-pyrazol-1-yl)phenoxy)thieno[3,2-d]pyrimidine] registered an EC50 of 1 to 1000 nM.

Another test has as its system NCI-N87. The experiment in a line: MTT assay of cellular proliferation. The test is classed as cell-based. Conditions: Homo sapiens, 50% inhibition of cellular proliferation. In short, it runs like this: as §2
For the compound `COc1cc(NC(C)=O)cc(Oc2ccnc3ccc(Br)cc23)c1` [Compound 22, N-(3-((6-bromoquinolin-4-yl)oxy)-5-methoxyphenyl)acetamide], the EC50 was in the range of 1 to 1000 nM.

`COc1cc(Oc2ncnc3ccsc23)cc(-n2cccn2)c1` [Compound 38, 4-(3-methoxy-5-(1H-pyrazol-1-yl)phenoxy)thieno[3,2-d]pyrimidine]: the EC50 was in the range of 1 to 1000 nM.

Another test concerns SW480. The experiment in a line: MTT assay of cellular proliferation. In kind it is cell-based. Conditions: Homo sapiens, 50% inhibition of cellular proliferation. Summed up: as §2
Take `COc1cc(NC(C)=O)cc(Oc2ccnc3ccc(Br)cc23)c1` [Compound 22, N-(3-((6-bromoquinolin-4-yl)oxy)-5-methoxyphenyl)acetamide]: the EC50 lay within 1 to 1000 nM.

Take `COc1cc(Oc2ncnc3ccsc23)cc(-n2cccn2)c1` [Compound 38, 4-(3-methoxy-5-(1H-pyrazol-1-yl)phenoxy)thieno[3,2-d]pyrimidine]: the concentration for a half-maximal effect (EC50) was in the range of 1 to 1000 nM.

Another test relates to T2 HCC. The test can be described thus: MTT assay of cellular proliferation. In kind it is cell-based. Conditions: Mus musculus, 50% inhibition of cellular proliferation. In short, it runs like this: as §2
Consider `COc1cc(NC(C)=O)cc(Oc2ccnc3ccc(Br)cc23)c1` [Compound 22, N-(3-((6-bromoquinolin-4-yl)oxy)-5-methoxyphenyl)acetamide], for which the EC50 lay in the range of 1 to 1000 nM.

As for `COc1cc(Oc2ncnc3ccsc23)cc(-n2cccn2)c1` [Compound 38, 4-(3-methoxy-5-(1H-pyrazol-1-yl)phenoxy)thieno[3,2-d]pyrimidine], the EC50 lay within 1 to 1000 nM.
